The target of this test is PI3K delta (Homo sapiens, UniProt O00329). The test is described as follows: Luciferase-coupled chemiluminescence kinase assay (ATP consumption, KinaseGlo). Format: biochemical. The method, boiled down: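 ATP consumption measured by KinaseGlo luciferase chemiluminescence after a 2 h reaction at ambient temperature, with ATP at or below the kinase KM. Ten inhibitor concentrations per curve; IC50 from four-parameter nonlinear regression.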
Sequence of PI3K delta (O00329 whole entry): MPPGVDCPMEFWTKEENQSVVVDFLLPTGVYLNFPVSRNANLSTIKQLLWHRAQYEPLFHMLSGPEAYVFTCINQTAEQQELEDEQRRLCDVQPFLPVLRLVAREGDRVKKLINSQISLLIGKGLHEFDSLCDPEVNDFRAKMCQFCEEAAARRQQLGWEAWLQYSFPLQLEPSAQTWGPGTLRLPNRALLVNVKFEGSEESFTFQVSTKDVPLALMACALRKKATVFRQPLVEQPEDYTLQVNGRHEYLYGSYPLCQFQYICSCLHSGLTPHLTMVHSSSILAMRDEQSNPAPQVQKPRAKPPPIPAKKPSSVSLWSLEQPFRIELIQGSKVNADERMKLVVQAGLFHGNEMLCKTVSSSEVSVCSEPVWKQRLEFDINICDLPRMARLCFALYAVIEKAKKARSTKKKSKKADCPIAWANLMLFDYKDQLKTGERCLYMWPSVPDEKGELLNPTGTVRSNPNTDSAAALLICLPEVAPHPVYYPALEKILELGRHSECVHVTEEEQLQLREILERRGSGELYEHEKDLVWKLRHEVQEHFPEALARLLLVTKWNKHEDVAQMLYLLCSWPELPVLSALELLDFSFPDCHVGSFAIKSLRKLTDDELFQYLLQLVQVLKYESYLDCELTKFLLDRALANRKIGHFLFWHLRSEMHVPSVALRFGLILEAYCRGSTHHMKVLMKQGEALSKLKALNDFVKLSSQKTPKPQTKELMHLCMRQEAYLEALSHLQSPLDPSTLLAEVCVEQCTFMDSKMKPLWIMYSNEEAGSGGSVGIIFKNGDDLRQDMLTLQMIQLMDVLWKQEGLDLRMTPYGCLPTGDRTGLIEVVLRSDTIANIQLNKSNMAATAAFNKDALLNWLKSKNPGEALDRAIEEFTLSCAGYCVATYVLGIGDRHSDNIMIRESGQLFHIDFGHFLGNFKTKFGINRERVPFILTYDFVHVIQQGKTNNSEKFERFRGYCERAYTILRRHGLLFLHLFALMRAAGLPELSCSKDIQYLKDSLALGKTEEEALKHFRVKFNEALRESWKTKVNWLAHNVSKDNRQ
Sequence of PI3K delta (P27986 whole entry partner): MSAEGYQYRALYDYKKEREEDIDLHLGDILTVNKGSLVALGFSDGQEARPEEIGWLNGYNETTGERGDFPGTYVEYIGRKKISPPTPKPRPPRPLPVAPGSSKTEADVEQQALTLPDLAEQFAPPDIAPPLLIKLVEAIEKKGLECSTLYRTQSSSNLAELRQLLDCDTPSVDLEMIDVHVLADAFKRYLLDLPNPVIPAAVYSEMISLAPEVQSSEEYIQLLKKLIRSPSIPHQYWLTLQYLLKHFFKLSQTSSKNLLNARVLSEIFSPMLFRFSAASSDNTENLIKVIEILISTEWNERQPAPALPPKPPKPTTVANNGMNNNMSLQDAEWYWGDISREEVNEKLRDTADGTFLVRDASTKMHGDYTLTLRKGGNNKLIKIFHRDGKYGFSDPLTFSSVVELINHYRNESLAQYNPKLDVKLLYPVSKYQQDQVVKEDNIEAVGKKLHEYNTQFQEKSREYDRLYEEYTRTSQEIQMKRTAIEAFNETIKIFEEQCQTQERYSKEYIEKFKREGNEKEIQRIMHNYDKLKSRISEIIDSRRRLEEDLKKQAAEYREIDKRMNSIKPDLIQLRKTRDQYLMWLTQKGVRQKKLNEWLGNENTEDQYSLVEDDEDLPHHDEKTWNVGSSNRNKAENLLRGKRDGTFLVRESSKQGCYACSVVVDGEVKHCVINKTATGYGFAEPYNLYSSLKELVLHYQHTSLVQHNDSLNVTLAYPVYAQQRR
Consider `Cn1c(C(=O)N[C@H]2CC[C@H](O)CC2)nc2c(N3CCC(n4c(=O)[nH]c5ncccc54)CC3)ncnc21` [Compound 329, N-(trans-4-hydroxycyclohexyl)-9-methyl-6-[4-(2-oxo-2,3-dihydro-1H-imidazo[4,5-b]pyridin-1-yl)piperidin-1-yl]-9H-purine-8-carboxamide], for which the IC50 was < 0.05 µM.

In the case of `Cc1c(-c2nc3c(N4CCC(n5c(=O)[nH]c6ncccc65)CC4)ncnc3n2C)cnn1C` [Compound 331, 1-{1-[8-(1,5-dimethyl-1H-pyrazol-4-yl)-9-methyl-9H-purin-6-yl]piperidin-4-yl}-1,3-dihydro-2H-imidazo[4,5-b]pyridin-2-one], the half-inhibitory concentration (IC50) was < 0.05 µM.

Regarding `Cc1nnc(-c2nc3c(N4CCC(n5c(=O)[nH]c6ccccc65)CC4)ncnc3n2C)n1C` [Compound 332, 1-{1-[8-(4,5-dimethyl-4H-1,2,4-triazol-3-yl)-9-methyl-9H-purin-6-yl]piperidin-4-yl}-1,3-dihydro-2H-benzimidazol-2-one], the IC50 fell in the range of 0.05 to 0.25 µM.

`Cc1ncc(-c2nc3c(N4CCC(n5c(=O)[nH]c6ccccc65)CC4)ncnc3n2C)n1C` [Compound 333, 1-{1-[8-(1,2-dimethyl-1H-imidazol-5-yl)-9-methyl-9H-purin-6-yl]piperidin-4-yl)-1,3-dihydro-2H-benzimidazol-2-one]: the IC50 is < 0.05 µM.

Consider `COC(=O)[C@@H]1CN(c2ncnc3c2nc(-c2cnn(C)c2)n3C)CC[C@H]1n1c(=O)[nH]c2ccccc21` [Compound 334, methyl (3R,4R)-1-[9-methyl-8-(1-methyl-1H-pyrazol-4-yl)-9H-purin-6-yl]-4-(2-oxo-2,3-dihydro-1H-benzimidazol-1-yl)piperidine-3-carboxylate], for which the IC50 is < 0.05 µM.

As for `Cn1c(-c2cccnn2)nc2c(N3CCC(n4c(=O)[nH]c5ncccc54)CC3)ncnc21` [Compound 335, 1-[1-(9-methyl-8-pyridazin-3-yl-9H-purin-6-yl)piperidin-4-yl]-1,3-dihydro-2H-imidazo[4,5-b]pyridin-2-one], the IC50 is 0.05 to 0.25 µM.

`Cc1ncc(-c2nc3c(N4CCC(n5c(=O)[nH]c6ncccc65)CC4)ncnc3n2C)n1C` [Compound 336, 1-{1-[8-(1,2-dimethyl-1H-imidazol-5-yl)-9-methyl-9H-purin-6-yl]piperidin-4-yl)-1,3-dihydro-2H-imidazo[4,5-b]pyridin-2-one]: the concentration for half-maximal inhibition (IC50) is < 0.05 µM.

In the case of `CCn1ncc(-c2nc3c(N4CCC(n5c(=O)[nH]c6ncccc65)CC4)ncnc3n2C)c1C` [Compound 337, 1-{1-[8-(1-ethyl-5-methyl-1H-pyrazol-4-yl)-9-methyl-9H-purin-6-yl]piperidin-4-yl}-1,3-dihydro-2H-imidazo[4,5-b]pyridin-2-one], the concentration for half-maximal inhibition (IC50) is < 0.05 µM.

As to `Cn1cc(-c2nc3c(N4CC[C@@H](n5c(=O)[nH]c6ccccc65)[C@H](CO)C4)ncnc3n2C)cn1` [Compound 338, 1-{(3R,4R)-3-(hydroxymethyl)-1-[9-methyl-8-(1-methyl-1H-pyrazol-4-yl)-9H-purin-6-yl]piperidin-4-yl}-1,3-dihydro-2H-benzimidazol-2-one], the IC50 lay within 0.05 to 0.25 µM.

In turn, `Cn1c(CNC(=O)OC(C)(C)C)nc2c(N3CCC(n4c(=O)[nH]c5ccccc54)CC3)ncnc21` [Compound 339, 1,1-dimethylethyl ({9-methyl-6-[4-(2-oxo-2,3-dihydro-1H-benzimidazol-1-yl)piperidin-1-yl]-9H-purin-8-yl}methyl)carbamate] had a concentration for half-maximal inhibition (IC50) of 0.5 to 1.5 µM.

Regarding `Cc1ncc(-c2nc3c(N4CCC(n5c(=O)[nH]c6ccccc65)CC4)ncnc3n2C)cn1` [Compound 340, 1-{1-[9-methyl-8-(2-methylpyrimidin-5-yl)-9H-purin-6-yl]piperidin-4-yl}-1,3-dihydro-2H-benzimidazol-2-one], the IC50 was < 0.05 µM.

Compound `Cn1cc(-c2nc3c(N4CCC(n5c(=O)[nH]c6cnccc65)CC4)ncnc3n2C)cn1` [Compound 341, 1-{1-[9-methyl-8-(1-methyl-1H-pyrazol-4-yl)-9H-purin-6-yl]piperidin-4-yl}-1,3-dihydro-2H-imidazo[4,5-c]pyridin-2-one] yielded an IC50 of 0.25 to 0.5 µM.

As to `CCn1c(-c2cnc(C)nc2)nc2c(N3CCC(n4c(=O)[nH]c5ccccc54)CC3)ncnc21` [Compound 342, 1-{1-[9-ethyl-8-(2-methylpyrimidin-5-yl)-9H-purin-6-yl]piperidin-4-yl}-1,3-dihydro-2H-benzimidazol-2-one], the IC50 is < 0.05 µM.

On to `Cn1c(-c2ccc(N)nc2)nc2c(N3CCC(n4c(=O)[nH]c5ncccc54)CC3)ncnc21` [Compound 343, 1-{1-[8-(6-aminopyridin-3-yl)-9-methyl-9H-purin-6-yl]piperidin-4-yl}-1,3-dihydro-2H-imidazo[4,5-b]pyridin-2-one], for which the IC50 is < 0.05 µM.

With `CCn1cc(-c2nc3c(N4CCC(n5c(=O)[nH]c6c(F)cccc65)CC4)ncnc3n2C)cn1` [Compound 344, 1-{1-[8-(1-ethyl-1H-pyrazol-4-yl)-9-methyl-9H-purin-6-yl]piperidin-4-yl}-4-fluoro-1,3-dihydro-2H-benzimidazol-2-one], the IC50 was < 0.05 µM.

Consider `CCn1ncc(-c2nc3c(N4CCC(n5c(=O)[nH]c6c(F)cccc65)CC4)ncnc3n2C)c1C` [Compound 345, 1-{1-[8-(1-ethyl-5-methyl-1H-pyrazol-4-yl)-9-methyl-9H-purin-6-yl]piperidin-4-yl}-4-fluoro-1,3-dihydro-2H-benzimidazol-2-one], for which the IC50 was < 0.05 µM.

On to `Cn1cc(-c2nc3c(N4CC[C@H](c5ccccc5)[C@@H](O)C4)ncnc3n2C)cn1` [Compound 346, (3R,4R)-1-[9-methyl-8-(1-methyl-1H-pyrazol-4-yl)-9H-purin-6-yl]-4-phenylpiperidin-3-ol], for which the IC50 was 0.25 to 0.5 µM.

The compound `Cn1cc(-c2nc3c(N4CC[C@@H](n5c(=O)[nH]c6ccccc65)[C@H](C(=O)O)C4)ncnc3n2C)cn1` [Compound 347, (3R,4R)-1-[9-methyl-8-(1-methyl-1H-pyrazol-4-yl)-9H-purin-6-yl]-4-(2-oxo-2,3-dihydro-1H-benzimidazol-1-yl)piperidine-3-carboxylic acid] had an IC50 of 0.5 to 1.5 µM.

`Cn1cc(-c2nc3c(N4CCN(C5=NS(=O)(=O)c6ccccc65)CC4)ncnc3n2C)cn1` [Compound 348, 6-[4-(1,1-dioxido-1,2-benzisothiazol-3-yl)piperazin-1-yl]-9-methyl-8-(1-methyl-1H-pyrazol-4-yl)-9H-purine] returned a concentration for half-maximal inhibition (IC50) of 0.05 to 0.25 µM.

Compound `CCn1cc(-c2nc3c(N4CCN(C5=NS(=O)(=O)c6ccccc65)CC4)ncnc3n2C)cn1` [Compound 349, 6-[4-(1,1-dioxido-1,2-benzisothiazol-3-yl)piperazin-1-yl]-8-(1-ethyl-1H-pyrazol-4-yl)-9-methyl-9H-purine] showed an IC50 of 0.05 to 0.25 µM.

Compound `Cn1cc(-c2nc3c(N4CCN(c5ccccc5S(C)(=O)=O)CC4)ncnc3n2C)cn1` [Compound 350, 9-methyl-8-(1-methyl-1H-pyrazol-4-yl)-6-{4-[2-(methylsulfonyl)phenyl]piper-azin-1-yl}-9H-purine] showed a half-inhibitory concentration (IC50) of 0.5 to 1.5 µM.

Consider `Cn1cc(-c2nc3c(N4CCC(c5c[nH]c6ccccc56)CC4)ncnc3n2C)cn1` [Compound 351, 6-[4-(1H-indol-3-yl)piperidin-1-yl]-9-methyl-8-(1-methyl-1H-pyrazol-4-yl)-9H-purine], for which the IC50 was 0.25 to 0.5 µM.

`CNc1ccc(-c2nc3c(N4CCC(n5c(=O)[nH]c6ccccc65)CC4)ncnc3n2C)cn1` [Compound 353, 1-(1-{9-methyl-8-[6-(methylamino)pyridin-3-yl]-9H-purin-6-yl}piperidin-4-yl)-1,3-dihydro-2H-benzimidazol-2-one]: the IC50 is < 0.05 µM.

Take `CNc1ccc(-c2nc3c(N4CCC(n5c(=O)[nH]c6ncccc65)CC4)ncnc3n2C)cn1` [Compound 354, 1-(1-{9-methyl-8-[6-(methylamino)pyridin-3-yl]-9H-purin-6-yl}piperidin-4-yl)-1,3-dihydro-2H-imidazo[4,5-b]pyridin-2-one]: the IC50 was < 0.05 µM.

The compound `Cn1cc(-c2nc3c(N4CCN(S(=O)(=O)c5ccccc5)CC4)ncnc3n2C)cn1` [Compound 355, 9-methyl-8-(1-methyl-1H-pyrazol-4-yl)-6-[4-(phenylsulfonyl)piperazin-1-yl]-9H-purine] came in with an IC50 of 0.25 to 0.5 µM.

In turn, `Cn1cc(-c2nc3c(N4CCN(c5cccc(OCC(=O)NC6CCCC6)c5)CC4)ncnc3n2C)cn1` [Compound 356, N-cyclopentyl-2-[(3-{4-[9-methyl-8-(1-methyl-1H-pyrazol-4-yl)-9H-purin-6-yl]piperazin-1-yl}phenyl)oxy]acetamide] yielded an IC50 of 0.5 to 1.5 µM.

In turn, `Cn1cc(-c2nc3c(N4CCN(c5cccc(OCC(=O)N6CCCCC6)c5)CC4)ncnc3n2C)cn1` [Compound 357, 9-methyl-8-(1-methyl-1H-pyrazol-4-yl)-6-(4-{3-[(2-oxo-2-piperidin-1-ylethyl)oxy]phenyl}piperazin-1-yl)-9H-purine] showed an IC50 of 0.5 to 1.5 µM.

Regarding `Cn1cc(-c2nc3c(N4CCN(c5cccc(OCC(=O)NC6CCCCC6)c5)CC4)ncnc3n2C)cn1` [Compound 358, N-cyclohexyl-2-[(3-{4-[9-methyl-8-(1-methyl-1H-pyrazol-4-yl)-9H-purin-6-yl]piperazin-1-yl}phenyl)oxy]acetamide], the half-maximal inhibitory concentration (IC50) is 0.5 to 1.5 µM.

Consider `Cn1cc(-c2nc3c(N4CCN(c5cccc(OCC(=O)N6CCCCCC6)c5)CC4)ncnc3n2C)cn1` [Compound 359, 6-(4-{3-[(2-azepan-1-yl-2-oxoethyl)oxy]phenyl}piperazin-1-yl)-9-methyl-8-(1-methyl-1H-pyrazol-4-yl)-9H-purine], for which the IC50 was 0.25 to 0.5 µM.

`Cn1cc(-c2nc3c(N4CCN(c5ccc(OCC6CC6)cc5)CC4)ncnc3n2C)cn1` [Compound 360] showed an IC50 of 0.5 to 1.5 µM.

The compound `Cn1cc(-c2nc3c(N4CCN(c5ccc(OCc6ccc7ccccc7n6)cc5)CC4)ncnc3n2C)cn1` [Compound 361, 2-{[(4-(4-[9-methyl-8-(1-methyl-1H-pyrazol-4-yl)-9H-purin-6-yl]piperazin-1-yl}phenyl)oxy]methyl)-quinoline] yielded an IC50 of 0.5 to 1.5 µM.

For `Cn1cc(-c2nc3c(N4CCN(c5ccccc5CNC(=O)C5CC5)CC4)ncnc3n2C)cn1` [Compound 362, N-[(2-{4-[9-methyl-8-(1-methyl-1H-pyrazol-4-yl)-9H-purin-6-yl]piperazin-1-yl)phenyl)methyl]cyclopropane-carboxamide], the IC50 lay in the range of 0.5 to 1.5 µM.

The term IC50 denotes the concentration at which inhibition is half-maximal. A lower IC50 goes with greater potency in that assay.
